Columns and labels:
Format in all cases: ADME, organism-based
Kidney = experiment: Biodistribution in Wistar rat kidney at 1.7 MBq, iv administered as single dose measured after 30 mins post-injection by gamma counting; settings: in vivo, 0.5 h
[1] = Biodistribution in Wistar rat thyroid gland at 1.7 MBq, iv administered as single dose measured after 30 mins post-injection by gamma counting; settings: in vivo, 0.5 h
Spleen [2] = experiment: Biodistribution in Wistar rat spleen assessed as standard uptake value at 1.7 MBq, iv administered as single dose measured after 10 mins post-injection by gamma counting; settings: in vivo
Blood [3] = experiment: Biodistribution in Wistar rat blood assessed as standard uptake value at 1.7 MBq, iv administered as single dose measured after 60 mins post-injection by gamma counting; settings: in vivo, 1 h
Heart [4] = experiment: Biodistribution in Wistar rat heart assessed as standard uptake value at 1.7 MBq, iv administered as single dose measured after 5 mins post-injection by gamma counting; settings: in vivo
Adrenal gland [5] = experiment: Biodistribution in Wistar rat adrenal gland at 1.7 MBq, iv administered as single dose measured after 1 min post-injection by gamma counting; settings: in vivo
Blood [6] = experiment: Biodistribution in Wistar rat blood assessed as standard uptake value at 1.7 MBq, iv administered as single dose measured after 1 min post-injection by gamma counting; settings: in vivo
[7] = Biodistribution in Wistar rat thyroid gland assessed as standard uptake value at 1.7 MBq, iv administered as single dose measured after 1 min post-injection by gamma counting; settings: in vivo
Pancreas [8] = experiment: Biodistribution in Wistar rat pancreas assessed as standard uptake value at 1.7 MBq, iv administered as single dose measured after 60 mins post-injection by gamma counting; settings: in vivo, 1 h
Brain [9] = experiment: Biodistribution in Wistar rat brain at 1.7 MBq, iv administered as single dose measured after 5 mins post-injection by gamma counting; settings: in vivo
Pancreas [10] = experiment: Biodistribution in Wistar rat pancreas at 1.7 MBq, iv administered as single dose measured after 30 mins post-injection by gamma counting; settings: in vivo, 0.5 h
Heart [11] = experiment: Biodistribution in Wistar rat heart at 1.7 MBq, iv administered as single dose measured after 30 mins post-injection by gamma counting; settings: in vivo, 0.5 h
Spleen [12] = experiment: Biodistribution in Wistar rat spleen assessed as standard uptake value at 1.7 MBq, iv administered as single dose measured after 5 mins post-injection by gamma counting; settings: in vivo
Femur [13] = experiment: Biodistribution in Wistar rat femur at 1.7 MBq, iv administered as single dose measured after 60 mins post-injection by gamma counting; settings: in vivo, 1 h
Lung = experiment: Biodistribution in Wistar rat lung at 1.7 MBq, iv administered as single dose measured after 1 min post-injection by gamma counting; settings: in vivo
[14] = Biodistribution in Wistar rat urine at 1.7 MBq, iv administered as single dose measured after 60 mins post-injection by gamma counting; settings: in vivo, 1 h
Femur [15] = experiment: Biodistribution in Wistar rat femur at 1.7 MBq, iv administered as single dose measured after 5 mins post-injection by gamma counting; settings: in vivo
Adrenal gland [16] = experiment: Biodistribution in Wistar rat adrenal gland assessed as standard uptake value at 1.7 MBq, iv administered as single dose measured after 60 mins post-injection by gamma counting; settings: in vivo, 1 h
[17] = Biodistribution in Wistar rat adipose tissue assessed as standard uptake value at 1.7 MBq, iv administered as single dose measured after 60 mins post-injection by gamma counting; settings: in vivo, 1 h
Brain [18] = experiment: Biodistribution in Wistar rat brain assessed as standard uptake value at 1.7 MBq, iv administered as single dose measured after 10 mins post-injection by gamma counting; settings: in vivo

Drug uptake (Kidney): 1.45 %ID
Drug uptake [1]: 0.03 %ID
SUV (Spleen [2]): 0.52%
SUV (Blood [3]): 0.15%
SUV (Heart [4]): 1.33%
Drug uptake (Adrenal gland [5]): 0.15 %ID
SUV (Blood [6]): 0.83%
SUV [7]: 1.55%
SUV (Pancreas [8]): 0.3%
Drug uptake (Brain [9]): 1.87 %ID
Drug uptake (Pancreas [10]): 0.11 %ID
Drug uptake (Heart [11]): 0.18 %ID
SUV (Spleen [12]): 0.79%
Drug uptake (Femur [13]): 0.11 %ID
Drug uptake (Lung): 2.68 %ID
Drug uptake [14]: 43.53 %ID
Drug uptake (Femur [15]): 0.35 %ID
SUV (Adrenal gland [16]): 1.11%
SUV [17]: 1.15%
SUV (Brain [18]): 0.97%
Compound: O=C1Nc2ccccc2/C1=C/c1ccc([18F])cc1
